Assay [1] in a line: Inhibition of Escherichia coli IspF by fluorescence titration assay.
The nature of assay [2]: Inhibition of Escherichia coli IspF.
Assay [3] can be described thus: Inhibition of Escherichia coli DXS.
Assay [4] in a line: Inhibition of recombinant Pseudomonas aeruginosa DXS expressed in Escherichia coli by spectrophotometric analysis.
The nature of assay [5]: Competitive inhibition of Escherichia coli IspG expressed in Escherichia coli BL21(DE3) using MEcPP as substrate preincubated for 10 mins followed by substrate addition by Michaelis-Menten equation analysis.
The nature of assay [6]: Inhibition of Escherichia coli IspE.
Assay [7] has as its target T1, 2-C-methyl-D-erythritol 4-phosphate cytidylyltransferase, chloroplastic (Arabidopsis thaliana, UniProt P69834).
T1 sequence (P69834 whole entry): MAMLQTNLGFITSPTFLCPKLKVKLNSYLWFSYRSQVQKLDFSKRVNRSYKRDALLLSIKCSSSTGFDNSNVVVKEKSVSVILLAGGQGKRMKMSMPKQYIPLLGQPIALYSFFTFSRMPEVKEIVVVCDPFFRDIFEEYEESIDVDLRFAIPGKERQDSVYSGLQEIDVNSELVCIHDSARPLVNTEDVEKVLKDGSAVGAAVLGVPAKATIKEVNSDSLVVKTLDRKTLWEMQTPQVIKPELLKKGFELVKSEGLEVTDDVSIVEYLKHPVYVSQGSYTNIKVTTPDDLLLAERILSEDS
Description: Inhibition of Arabidopsis thaliana IspD.

Assay [8] in a line: Inhibition of recombinant Plasmodium falciparum IspF measured for 30 mins by photometric plate reader analysis.
Assay [9] concerns the target 2-C-methyl-D-erythritol 2,4-cyclodiphosphate synthase (Mycobacterium tuberculosis (strain ATCC 25618 / H37Rv), UniProt P9WKG5). The assay is described as follows: Inhibition of Mycobacterium tuberculosis H37Rv IspF expressed in Escherichia coli XL1-Blue measured for 30 mins by photometric plate reader analysis.
A short description of assay [10]: Inhibition of Escherichia coli IspC.
The nature of assay [11]: Inhibition of Escherichia coli IspE by CDP-ME-coupled photometric analysis.
The nature of assay [12]: Inhibition of Aquifex aeolicus IspH expressed in Escherichia coli BL21(DE3).
Assay [13] is described as follows: Inhibition of IspD (unknown origin).
The nature of assay [14]: Inhibition of Aquifex aeolicus IspH expressed in Escherichia coli BL21(DE3) using HMBPP as substrate preincubated for 10 mins followed by substrate addition.
Assay [15] in a line: Inhibition of Chlamydomonas DXS.

Molecules are shown by their SMILES.

These results are taken from ChEMBL document CHEMBL3217583, “The MEP pathway and the development of inhibitors as potential anti-infective agents” (Medchemcomm, 2012).

Sequence of 2-C-methyl-D-erythritol 2,4-cyclodiphosphate synthase (P9WKG5 whole entry): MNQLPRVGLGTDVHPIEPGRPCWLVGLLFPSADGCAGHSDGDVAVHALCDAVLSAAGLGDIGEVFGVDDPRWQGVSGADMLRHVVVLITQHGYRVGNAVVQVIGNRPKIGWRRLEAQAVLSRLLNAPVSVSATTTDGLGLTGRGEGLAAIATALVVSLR

Consider `CN(C)c1cccc2c(S(=O)(=O)NCCOP(=O)(O)OP(=O)(O)OC[C@H]3O[C@@H](n4ccc(N)nc4=O)[C@H](O)[C@@H]3O)cccc12`, for which 3000 µM corresponded to half-maximal inhibition in assay [1] (IC50).

As for `Nc1ccn(Cc2ccc(CNC(=O)c3ccccc3)c3ccccc23)c(=O)n1`, the 50% inhibitory concentration (IC50) (commonly the midpoint of a concentration-inhibition curve) in assay [2] was 450 µM.

For `O=C(O)C(=O)CF`, the half-inhibitory concentration (IC50) in [3] is 80 µM; in assay [4] it was 400 µM.

Take `C#CCOP(=O)(O)OP(=O)(O)O` [PROP-2-YNYL DIPHOSPHATE]: the IC50 in assay [5] came out at 0.75 µM.

Turning to `CCS(=O)(=O)NCC#Cc1cn(C2CCCS2)c(=O)nc1N` (stereo unspecified), the 50% inhibitory concentration (IC50) in [6] was 6 µM.

In [7], `Oc1c(Cc2ccccc2)c(Cl)nc2ncnn12` registered an IC50 of 0.14 µM.

Turning to `CCOC(=O)C1=C(C)N=c2s/c(=C\c3cc(Br)c(O)c(Br)c3)c(=O)n2C1c1cccs1` (stereo unspecified), the half-maximal inhibitory concentration (IC50) in [8] was found to be 9.6 µM; in assay [9] it was 6.1 µM.

On to `CC(=O)N(O)CCCP(=O)(O)O`, for which 0.05 µM corresponded to half-maximal inhibition in assay [10] (IC50).

In assay [11], `Nc1ccn([C@@H]2O[C@H](CNC(=O)CCc3nc4ccccc4[nH]3)[C@@H](O)[C@H]2O)c(=O)n1` came in with an IC50 of 1670 µM.

The compound `O=P(O)(O)OP(=O)(O)OCCc1cccnc1` [PYRIDIN-3-YL-ETHYL-DIPHOSPHATE] showed an IC50 in assay [12] of 9.1 µM.

The compound `O=P(O)(O)OC[C@@H](O)[C@@H](O)CO` displayed a concentration for half-maximal inhibition (IC50) in assay [13] of 1360 µM.

As for `O=CN(O)CCCP(=O)(O)O` [FOSMIDOMYCIN], the IC50 in [10] is 0.035 µM.

In assay [14], `C#CCCOP(=O)(O)OP(=O)(O)O` [BUT-3-YNYL DIPHOSPHATE] displayed a concentration for half-maximal inhibition (IC50) of 0.45 µM.

In turn, `CC1(C)C(=O)ON(Cc2ccccc2Cl)C1=O` [KETOCLOMAZONE] returned a 50% inhibitory concentration (IC50) in assay [15] of 100 µM.
